Patent publication EP3290412A1, “HIV-1 NUCLEOCAPSID INHIBITORS” (Università degli Studi di Siena, priority 2016, dated 2018)
Like-named read-outs stand apart in the source and are kept apart here.

Assays:
[1] = target: NC(11-55) (Human immunodeficiency virus type 1, UniProt P12493); test: NC inhibition assay (NC-induced cTAR DNA destabilization, fluorescence); type: biochemical, HIV-1; conditions: for inhibition at 100 µM: single point screening, positive = >25% inhibition at 100µM
Excerpt: The NC inhibition assay is based on the nucleic acid chaperone activity of the NC protein. NC destabilizes the secondary structure of cTAR DNA, the complementary sequence of the transactivation response element, which is involved in minus-strand DNA transfer during reverse transcription. In the assay, the cTAR sequence from the HIV-1 Mal strain (Bernacchi et al, J Mol Biol, 2002) is labeled with a dye (Alexa488 fluorophore) and a quencher 4-(4'-dimethylaminophenylazo)benzoic acid (Dabcyl) at its 5' and 3' ends, respectively. In the absence of destabilization, the close proximity of both cTAR ends results in a strong fluorescence quenching of the dye emission by the Dabcyl group. NC(11-55) added to cTAR at a ratio of 10 NC/cTAR melts the bottom of the cTAR stem, which increases the distance between the dye and the quencher and as a result increases the dye fluorescence signal [Shvadchak et al, (2009) Identification by high throughput screening of small compounds inhibiting the nucleic acid destabilization activity of the HIV-1 nucleocapsid protein. Biochimie, 916-923]. NCIs are expected to prevent the NC-induced destabilization of cTAR and thus reverse the NC-induced increase in the fluorescence of the labeled cTAR. The activity of the inhibitor is thus evaluated from the ratio of the fluorescence intensity observed in the presence of NC with the molecule to the one in the absence of the compound.
The doubly labelled cTAR DNA oligonucleotides (55nt) were synthesised and purified by IBA GmbH Nucleic Acids Product Supply (Göttingen, Germany). Extinction coefficient at 260 nm of 5.73 x 10^5 M^-1 cm^-1 was used to determine the concentration of cTAR.
The NC(11-55) peptide (Avilov et al, Antimicrob Agents Chemother, 2012) was synthesized by solid-phase peptide synthesis on a 433A synthesizer (ABI, Foster City, CA) as previously described [De Rocquigny H, (1991) First large scale chemical synthesis of the 72 amino acid HIV-1 nucleocapsid protein NCp7 in an active form. Biochem Biophys Res Commun., 1010-1018]. The peptide was stored lyophilized and was resuspended in water before use. The concentration of peptide was determined by using an extinction coefficient of 5.7 x 10^3 M^-1 cm^-1 at 280 nm. Next, 2.5 molar equivalents of ZnSO4 were added and pH was raised to its final value by adding buffer.
All experiments were performed at 20 °C in 25 mM Tris-HCl (pH 7.5), 30 mM NaCl, and 0.2 mM MgCl2. To evaluate the inhibition activity of compounds on NC-induced cTAR destabilization, cTAR DNA (0.1 µM) was preincubated with 1 µM NC(11-55) (molar ratio NC:cTAR = 10:1) for 15 min at room temperature before addition of compound. For single point screening, all compounds were tested at three final concentrations: 1 µM, 10 µM and 100 µM. For the IC50 determination, inhibition of NC-induced cTAR melting was monitored through addition of increasing concentrations of the selected molecules to the pre-formed NC(11-55)-cTAR complex. After the addition of compound, the mixture was incubated for 15 min at room temperature before the reading. The fluorescence signal was recorded with a plate reader Xenius (SAFAS Monaco) or Fluoromax 3 spectrofluorometer (Horiba Jobin-Yvon), and the excitation and emission wavelengths were 480 and 520 nm, respectively. The spectra were corrected for dilution, buffer fluorescence and screening effect (when it was required). In order to check the occurrence of aggregation, we performed additional reading of absorption with the plate reader Xenius (SAFAS Monaco) or Cary 4000 spectrophotometer (Agilent). […]

[2] = test system: HIV-1 reference strain NL4-3; test: MonoCycle assay (TZM-bl cells); type: cell-based
Experimental: MonoCycle assay is a cell based assay allowing the evaluation of antiviral activity of HIV-1 inhibitors targeting the early steps of HIV-1 life cycle such as entry, uncoating of viral particles, reverse transcription and integration. The assay consists in the infection of TZM-bl cells (20,000/well) with the HIV-1 reference strain NL4-3 in presence of serial five-fold dilutions of the investigational inhibitors. After 48 hours, cells were lysed adding 40 µl of Glo Lysis Buffer (Promega) to each well for 5 minutes, then 40 µl of Brighy-Glo Luciferase Reagent (Promega) were added to each well for relative luminescence units (RLU) counting using Glo-Max Multi Detection System (Promega). RLU values from each well were elaborated using the GraphPad v5.0 software to calculate the IC50 of each compound.

[3] = Human immunodeficiency virus 1, NL43, TZM-bl cells, NL4-3, 48 hours, read-out: Mono Cycle IC50
[4] = Human immunodeficiency virus 1, NL43, TZM-bl, 48 h, read-out: Mono Cycle IC50 nM

| SMILES | IC50 [1] | inhibition at 100 µM [1] | IC50 [2, 3] | IC50 [2, 4] | IC50 ([1]; cTAR DNA 0.1 µM, 1 µM NC(11-55), 20 °C, pH 7.5, read-out: NC inhibition IC50) |
| --- | --- | --- | --- | --- | --- |
| C[C@@H](NC(=O)c1nc(-c2ccc(C(N)=O)cn2)nc(O)c1O)C1CCCCC1 [Compound 51, (R)-2-(5-carbamoylpyridin-2-yl)-N-(1-cyclohexylethyl)-5,6-dihydroxypyrimidine-4-carboxamide] | 10 µM | > 25% |  |  |  |
| C[C@@H](NC(=O)c1nc(-c2cccc(C(F)(F)F)n2)nc(O)c1O)C1CCCCC1 [Compound 44, (R)-N-(1-cyclohexylethyl)-5,6-dihydroxy-2-(6-(trifluoromethyl)pyridin-2-yl)pyrimidine-4-carboxamide] |  | > 25% | > 50000 nM |  |  |
| CC(NC(=O)c1nc(-c2ccccn2)nc(O)c1O)C1CCCC1 (stereo not shown) [Compound 65, N-(1-cyclopentylethyl)-5,6-dihydroxy-2-(pyridin-2-yl)pyrimidine-4-carboxamide] | 47 µM | > 25% |  | > 50000 nM |  |
| Cc1ccnc(-c2nc(O)c(O)c(C(=O)N[C@H](C)C3CCCCC3)n2)c1 [Compound 19, (R)-N-(1-cyclohexylethyl)-5,6-dihydroxy-2-(4-methylpyridin-2-yl)pyrimidine-4-carboxamide] | 8.5 µM | > 25% |  | 15300 nM |  |
| O=C(NCC1CCC1)c1nc(-c2cc3ccccc3cn2)nc(O)c1O [Compound 47, N-(cyclobutylmethyl)-5,6-dihydroxy-2-(isoquinolin-3-yl)pyrimidine-4-carboxamide] | 6.5 µM | > 25% |  | 8930 nM |  |
| C[C@H](NC(=O)c1nc(-c2nccc3[nH]ccc23)nc(O)c1O)C1CCCCC1 [Compound 86, (S)-N-(1-cyclohexylethyl)-5,6-dihydroxy-2-(1H-pyrrolo[3,2-c]pyridin-4-yl)pyrimidine-4-carboxamide] |  | > 25% |  | > 50000 nM | 5.5 µM |
| CC1(C)CCC(NC(=O)c2nc(-c3ccccn3)nc(O)c2O)CC1 [Compound 58, N-(4,4-dimethylcyclohexyl)-5,6-dihydroxy-2-(pyridin-2-yl)pyrimidine-4-carboxamide] | 23 µM | > 25% |  |  |  |
| C[C@@H](NC(=O)c1nc(-c2ccc(C(=O)OCc3ccccc3)cn2)nc(O)c1O)C1CCCCC1 [Compound 21, benzyl (R)-6-(4-((1-cyclohexylethyl)carbamoyl)-5,6-dihydroxypyrimidin-2-yl)nicotinate] | 10 µM | > 25% |  | > 50000 nM |  |
| CCNS(=O)(=O)c1ccc(-c2nc(O)c(O)c(C(=O)N[C@H](C)C3CCCCC3)n2)nc1 [Compound 89, (R)-N-(1-cyclohexylethyl)-2-(5-(N-ethylsulfamoyl)pyridin-2-yl)-5,6-dihydroxypyrimidine-4-carboxamide] | 28 µM | > 25% |  | > 50000 nM |  |
| C[C@@H](NC(=O)c1nc(-c2cc(N)ccn2)nc(O)c1O)C1CCCCC1 [Compound 48, (R)-2-(4-aminopyridin-2-yl)-N-(1-cyclohexylethyl)-5,6-dihydroxypyrimidine-4-carboxamide] | 4 µM | > 25% |  | 9870 nM |  |
| O=C(OC1CCCCC1)c1nc(-c2ccccn2)nc(O)c1O [Compound 13, cyclohexyl 5,6-dihydroxy-2-(pyridin-2-yl)pyrimidine-4-carboxylate] | 237 µM | > 25% |  |  |  |
| O=C(NCC1CCCCC1)c1nc(-c2ncccc2Cl)nc(O)c1O [Compound 16, 2-(3-chloropyridin-2-yl)-N-(cyclohexylmethyl)-5,6-dihydroxypyrimidine-4-carboxamide] |  | > 25% | 51100 nM |  |  |
| O=C(NC1CCCCC1)c1nc(-c2ccccn2)nc(O)c1O [Compound 4, N-cyclohexyl-5,6-dihydroxy-2-(pyridin-2-yl)pyrimidine-4-carboxamide] | 320 µM | > 25% |  | > 50000 nM |  |
| Cc1ccc(-c2nc(O)c(O)c(C(=O)N[C@H](C)C3CCCCC3)n2)nc1 [Compound 41, (R)-N-(1-cyclohexylethyl)-5,6-dihydroxy-2-(5-methylpyridin-2-yl)pyrimidine-4-carboxamide] |  | > 25% |  |  |  |
| COc1ccc2nc(-c3nc(O)c(O)c(C(=O)N[C@H](C)C4CCCCC4)n3)ccc2c1 [Compound 66, (R)-N-(1-cyclohexylethyl)-5,6-dihydroxy-2-(6-methoxyquinolin-2-yl)pyrimidine-4-carboxamide] | 8 µM | > 25% |  |  |  |
| CC1CCC(NC(=O)c2nc(-c3ccccn3)nc(O)c2O)CC1 (stereo not shown) [Compound 56, 5,6-dihydroxy-N-(4-methylcyclohexyl)-2-(pyridin-2-yl)pyrimidine-4-carboxamide] | 35 µM | > 25% |  |  |  |
| C[C@@H](NC(=O)c1nc(-c2ccc(C(=O)NCc3ccccc3)cn2)nc(O)c1O)C1CCCCC1 [Compound 50, (R)-2-(5-(benzylcarbamoyl)pyridin-2-yl)-N(1-cyclohexylethyl)-5,6-dihydroxypyrimidine-4-carboxamide] | 5 µM | > 25% |  |  |  |
| C[C@@H](NC(=O)c1nc(-c2cc(C(=O)OCc3ccccc3)ccn2)nc(O)c1O)C1CCCCC1 [Compound 46, benzyl (R)-2-(4-((1-cyclohexylethyl)carbamoyl)-5,6-dihydroxypyrimidin-2-yl)isonicotinate] | 10 µM | > 25% |  |  |  |
| Cc1ccc(-c2nc(O)c(O)c(C(=O)N[C@H](C)C3CCCCC3)n2)nc1C [Compound 67, (R)-N-(1-cyclohexylethyl)-2-(,5,6-dimethylpyridin-2-yl)-5,6-dihydroxypyrimidine-4-carboxamide] |  | > 25% |  |  |  |
| C[C@@H](NC(=O)c1nc(-c2cccc(C(=O)OCc3ccccc3)n2)nc(O)c1O)C1CCCCC1 [Compound 54, benzyl (R)-6-(4-((1-cyclohexylethyl)carbamoyl)-5,6-dihydroxypyrimidin-2-yl)picolinate] |  | > 25% |  |  |  |
| C[C@@H](NC(=O)c1nc(-c2nc3ccccc3[nH]2)nc(O)c1O)C1CCCCC1 [Compound 29, (R)-2-(1H-benzo[d]imidazol-2-yl)-N-(1-cyclohexylethyl)-5,6-dihydroxypyrimidine-4-carboxamide] | 2.5 µM | > 25% |  |  |  |
| C[C@H](NC(=O)c1nc(-c2cc(C(F)(F)F)ccn2)nc(O)c1O)C1CCCCC1 [Compound 52, (S)-N-(1-cyclohexylethyl)-5,6-dihydroxy-2-(4-(trifluoromethyl)pyridin-2-yl)pyrimidine-4-carboxamide] | 26.5 µM | > 25% |  |  |  |
| O=C(NCCC1CCCC1)c1nc(-c2ccccn2)nc(O)c1O [Compound 43, N-(2-cyclopentylethyl)-5,6-dihydroxy-2-(pyridin-2-yl)pyrimidine-4-carboxamide] |  | > 25% |  |  |  |
| CC1CCCC(NC(=O)c2nc(-c3ccccn3)nc(O)c2O)C1 (stereo not shown) [Compound 57, 5,6-dihydroxy-N-(3-methylcyclohexyl)-2-(pyridin-2-yl)pyrimidine-4-carboxamide] | 35.5 µM | > 25% |  |  |  |
